In patent EP1283052A1, “Pharmaceutical composition containing caspase-8 and /or caspase-9 useful for overcoming glucocorticoid- and cancer therapy-induced apoptosis of tumours” (Deutsches Krebsforschungszentrum Stiftung des öffentlichen …, priority 2001, dated 2003):

System: caspase-9 and -6
Assay: Fluorometric caspase-6/9 activity assay in P693 cells
Assay type: cell-based, human
Conditions: cisplatin 2 µg/ml alone, Fig. 5a
Description: • (a) P693 and CEM cells were treated with cisplatin (2 µg/ml) in the absence or presence of DEX (1 µM) as indicated. 24 and 48 h following treatment cells were lysed and caspase-9 activity was determined using a fluorescent caspase-9 assay and spectroscopy. • (b) P5 and CEM cells were treated as described above. 24 h after stimulation Apaf-1 was immunoprecipitated from the cell extracts using a […]. Aliquotes of the precipitates were separated by three different gels and analysed by Western blotting using rabbit polyclonal Apaf-1, mAb cytochrome c or caspase-9 antibodies. The antibody heavy chain band (IgGH) ensures equal conditions. […]
• (A) Cell culture. […] The mice were given 0.28 mg/L DEX in drinking water, and the amount of water consumed was monitored. […] The tumour volumes were measured using callipers, and calculated using, as an approximation, the formula for volume of a hemi-ellipsoid: π(width^2 x length)/6. […] Early apoptotic changes were identified by staining of cells with fluoresceinthiocyanate (FITC)-conjugated annexin V and propidium iodide (Becton Dickinson, Heidelberg, Germany) and analysed by flow cytometry (FACScan, Becton Dickinson) as described (Herr et al., EMBO J. 16 (1997), 6200-6208) • (E) Immunohistochemistry. […] Bound antibodies were detected by FITC conjugated anti-mouse or anti-rabbit IgG (Molecular Probes Europe, Leiden, The Netherlands). […]

Structure (SMILES): N.N.[Cl][Pt][Cl] [cisplatin]
- caspase-6/9 activity: induced 24 h following cisplatin in P693 and CEM cells with increasing activity at 48 h
